Data published in patent US20240043386A1, “Modulators of the Cystic Fibrosis Transmembrane Conductance Regulator Protein and Methods of Use” (AbbVie Global Enterprises Ltd., priority 2021, published 2024).
Like-named read-outs stand apart in the source and are kept apart here.

What was measured:
F508delCFTR = target: T1, F508delCFTR (Homo sapiens, UniProt P13569, DEL508-508); experiment: Cell Surface Expression-Horse Radish Peroxidase (CSE-HRP) assay in CFBE41o-F508delCFTR-HRP cells; format: cell-based; conditions: for EC50: CFBE41o-F508delCFTR-HRP cells, 18-24 hours at 33° C., luminescence; for Maximum % activity (with co-corrector) / Maximum % activity (without co-corrector): normalized to on-plate positive control corrector (2 μM)
T1 construct: expressed in transfected cells; host or cells: CFBE41o- human lung-derived epithelial cell line, doxycycline-inducible expression
T1 sequence (P13569 with tags, fused parts or gaps DEL508-508): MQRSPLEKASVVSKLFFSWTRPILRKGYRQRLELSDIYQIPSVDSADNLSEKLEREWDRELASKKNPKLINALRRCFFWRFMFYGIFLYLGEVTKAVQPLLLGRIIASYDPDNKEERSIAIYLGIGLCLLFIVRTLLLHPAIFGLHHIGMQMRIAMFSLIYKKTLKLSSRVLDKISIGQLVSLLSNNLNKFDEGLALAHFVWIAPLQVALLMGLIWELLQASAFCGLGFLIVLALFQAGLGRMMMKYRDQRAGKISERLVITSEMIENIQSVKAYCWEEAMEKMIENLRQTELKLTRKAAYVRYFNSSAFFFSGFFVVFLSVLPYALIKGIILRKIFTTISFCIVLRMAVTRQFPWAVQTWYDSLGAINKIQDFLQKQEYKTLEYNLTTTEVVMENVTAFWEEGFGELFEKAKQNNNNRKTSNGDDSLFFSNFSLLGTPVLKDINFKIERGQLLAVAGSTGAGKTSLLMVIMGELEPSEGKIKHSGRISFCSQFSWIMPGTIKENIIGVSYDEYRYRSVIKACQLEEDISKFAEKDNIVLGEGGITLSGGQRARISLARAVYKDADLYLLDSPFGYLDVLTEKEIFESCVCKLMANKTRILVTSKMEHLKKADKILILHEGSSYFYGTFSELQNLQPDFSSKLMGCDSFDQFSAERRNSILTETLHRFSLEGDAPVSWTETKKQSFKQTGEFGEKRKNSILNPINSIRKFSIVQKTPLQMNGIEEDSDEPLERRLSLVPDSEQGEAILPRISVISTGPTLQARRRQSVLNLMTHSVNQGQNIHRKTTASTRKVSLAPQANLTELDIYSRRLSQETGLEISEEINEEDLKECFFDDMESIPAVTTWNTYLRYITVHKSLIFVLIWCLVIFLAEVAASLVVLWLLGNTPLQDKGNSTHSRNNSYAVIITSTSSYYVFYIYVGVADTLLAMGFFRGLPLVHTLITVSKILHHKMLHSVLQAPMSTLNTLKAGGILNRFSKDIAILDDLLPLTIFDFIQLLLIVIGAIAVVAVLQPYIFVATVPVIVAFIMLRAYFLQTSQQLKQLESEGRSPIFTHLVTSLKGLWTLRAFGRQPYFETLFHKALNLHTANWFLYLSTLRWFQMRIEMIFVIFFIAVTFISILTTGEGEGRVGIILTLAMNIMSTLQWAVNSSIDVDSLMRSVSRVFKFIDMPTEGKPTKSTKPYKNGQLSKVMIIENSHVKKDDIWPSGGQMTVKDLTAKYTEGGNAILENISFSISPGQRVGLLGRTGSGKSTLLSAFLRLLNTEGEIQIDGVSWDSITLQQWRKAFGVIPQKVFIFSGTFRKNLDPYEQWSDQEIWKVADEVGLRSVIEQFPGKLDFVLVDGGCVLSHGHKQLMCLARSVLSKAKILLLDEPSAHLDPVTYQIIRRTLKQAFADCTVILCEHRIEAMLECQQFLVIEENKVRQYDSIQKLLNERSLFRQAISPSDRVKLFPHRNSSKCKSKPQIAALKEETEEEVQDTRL
Experimental: A cellular assay for measuring the F508delCFTR cell surface expression after correction with test compounds either without or with a co-corrector (2 μM of 3-[(2R,4R)-4-({[1-(2,2-difluoro-1,3-benzodioxol-5-yl)cyclopropyl]carbonyl}amino)-7-methoxy-3,4-dihydro-2H-chromen-2-yl]benzoic acid), was developed in human lung derived epithelial cell line (CFBE4lo-) (Veit G et al, (2012) Mol Biol Cell. 23(21): 4188-4202). The development was achieved by expressing the F508delCFTR mutation along with a horseradish peroxidase (HRP) in the fourth exofacial loop, and then measuring the HRP activity using luminescence readout from these cells, CFBE4lo-F508delCFTR-HRP, that were incubated overnight with the test corrector compounds, either without or with the co-corrector. For this primary assay, the CFBE4lo-F508delCFTR-HRP cells were plated in 384-well plates (Greiner Bio-one; Cat 781080) at 4,000 cells/well along with 0.5 μg/mL doxycycline to induce the F508delCFTR-RP expression and further incubated at 37° C., 5% CO2 for 68-72 hours. The test compounds were then added either without or with a co-corrector at the required concentrations and further incubated for 18-24 hours at 33° C. The highest concentration tested was 20 μM or 30 μM (GI-1 to GIII-36) with an 8-point concentration response curve using a 3-fold dilution in both the test compound without or with the co-corrector. Three replicate plates were run to determine one EC50. All plates contained negative controls (dimethyl sulfoxide, DMSO) and positive control (2 μM or 3 μM (GI-1 to GIII-36) of 3-[(2R,4R)-4-({[1-(2,2-difluoro-1,3-benzodioxol-5-yl)cyclopropyl]carbonyl}amino)-7-methoxy-3,4-dihydro-2H-chromen-2-yl]benzoic acid) as well as on-plate concentration response of the positive control. Post incubation, the plates were washed 5× times with Dulbecco's phosphate buffered saline (DPBS), followed by the addition of the HRP substrate, luminol (50 μL), and measuring the HRP activity using luminescence readout on EnVision® Multilabel Plate Reader (Perkin Elmer; product number 2104-0010). The raw counts from the experiment were analyzed using Accelrys® Assay Explorer v3.3.
Z′ greater than 0.5 was used as passing quality control criteria for the plates. The Z′ is defined as:
1−[3*SDPositive Control+3*SDNegative Control/Absolute (MeanPositive Control−MeanNegative Control)]
The % activity measured at each of the 8 test concentrations of the test compound added either without or with a co-corrector (2 μM or 3 μM (GI-1 to GIII-36) of 3-[(2R,4R)-4-({[1-(2,2-difluoro-1,3-benzodioxol-5-yl)cyclopropyl]carbonyl}amino)-7-methoxy-3,4-dihydro-2H-chromen-2-yl]benzoic acid) was normalized to the on-plate positive control using the following formulae:
% activity (Test compound without co-corrector)=[(test compound without co-corrector response−DMSO response)/(positive control response−DMSO response)]*100
% activity (Test compound with co-corrector)=[(test compound with co-corrector response−DMSO response)/(positive control response−DMSO response)]*100
The maximum % activity achieved for the test compound either without or with a co-corrector at any tested concentration is presented in Table 3 along with the respective EC50's calculated using the following general sigmoidal curve with variable Hill slope equation (described as Model 42 in the Accelrys® Assay Explorer v3.3 software):
General sigmoidal curve with concentration, response, top, bottom, EC50 and Hill slope. This model describes a sigmoidal curve with an adjustable baseline, a. The equation can be used to fit curves where response is either increasing or decreasing with respect to the independent variable, “x”.

F508del/F508del CFTR = target: T2, F508del/F508del CFTR (Homo sapiens, UniProt P13569, DEL508-508); experiment: Trans-Epithelial Current Clamp (TECC) assay using primary human bronchial epithelial cells; format: cell-based; conditions: for Emax (% Dual): maximum percent activity relative to positive control (co-corrector 0.15 μM + potentiator 0.45 μM = 100%), primary hBE cells F508del/F508del; for EC50: primary hBE cells homozygous F508del/F508del, test C2 corrector with co-corrector and potentiator, 18-24 hours at 37° C., equivalent CFTR current (IEQ)/AUC
T2 construct: cells isolated from CF patients with the homozygous mutation; endogenous in cells; host or cells: primary human bronchial epithelial (hBE) cells from CF patients homozygous for F508del
T2 sequence (P13569 with tags, fused parts or gaps DEL508-508): as above
Source text: A cell-based assay was developed using the primary human bronchial epithelial cells (hBE cells) with F508del/F508del CFTR and other mutations.
Primary human bronchial epithelial (hBE) cells from CFTR patients with homozygous F508del/F508del mutation were expanded from 1×10^6 to 250×10^6 cells (Neuberger, T et al., 2011, Methods Mol Biol 741:39-54). For this purpose, cells isolated from CF patients with the homozygous mutation, procured from the CF center tissue procurement and cell culture core at the Marsico Lung Institute at UNC (Randell), the Cystic Fibrosis translational research center at McGill University (University), and Rosalind Franklin University Medical School (RFUMS) were seeded onto 24 well Corning (Cat #3378) filter plates that were coated with 3T3 conditioned media and grown at an air-liquid interface for 35 days using an Ultroser® G supplemented differentiation media. All the primary human bronchial epithelial cells were collected in accordance with institutional review board approval protocols. Apical surface mucus was removed 72 hours before the experiment by incubating the apical surface of the cells for 30 minutes with 3 mM dithiothreitol (DTT) prepared in Dulbecco's phosphate buffered saline (DPBS) with Ca^2+ and Mg^2+. This was followed with aspiration of the mucus from the apical surface along with DPBS. The apical surface was re-washed with phosphate buffered saline (PBS) incubated for 30 minutes followed with aspiration. These hBE cells were then incubated with the desired concentrations of the test C2 corrector compounds along with co-corrector, 4-[(2R,4R)-4-({[1-(2,2-difluoro-1,3-benzodioxol-5-yl)cyclopropyl]carbonyl}amino)-7-(difluoromethoxy)-3,4-dihydro-2H-chromen-2-yl]benzoic acid and potentiator, (5-{3-amino-5-[4-(trifluoromethoxy)benzene-1-sulfonyl]pyridin-2-yl}-1,3,4-oxadiazol-2-yl)methanol, for 18-24 hours at 37° C., 5% CO2. The desired concentrations of the correctors and potentiator compounds were prepared from the 10 mM stocks in differentiation media and were always applied on the basolateral side of the epithelial cells. We also used an assay format where a fixed concentration of potentiator was added chronically along with the corrector compounds. This chronic treatment with the potentiator helped eliminate any interaction that might happen with CFTR modulators (correctors and potentiators) and thereby determined the true efficacy of the modulator combinations reflective of clinical relevance.
The assay uses a Transepithelial Current Clamp (TECC) (Vu, C B et al., 2017; J Med Chem 60:458-473) instrument that can measure the functionality of the mutated channel by measuring the equivalent CFTR current (IEQ) generated by the polarized primary epithelial cells. We used a TECC-24 with a 24-channel electrode manifold allowing for the simultaneous measurement of the transepithelial voltage, VT, and transepithelial resistance, RT, under current clamp conditions, from 24 filters using a 24 well Costar filter plate. The design of the filters in the 24 well filter plates was exactly the same as the design of an individual Transwell filter used in the classical Ussing Chamber with a surface area of 0.33 cm^2. Each measured VT values were corrected for the electrode offset potential measured using buffer alone in a separate plate, and each measured RT values were then corrected for the combined solution series and empty filter resistances. The corrected VT and RT values were then used to calculate the equivalent current, IEQ using Ohm's law (IEQ=VT/RT). The area under the curve (AUC) for the time period between the forskolin peak IEQ response and at the time of bumetanide addition was also calculated using a one-third trapezoid method, in addition to calculating the IEQ. The assay was run in a 24-well format and all 24-wells were measured at the same time point giving a higher throughput for this assay. […]

[1] = with co-corrector (2 μM), read-out: EC50 (with co-corrector)
[2] = without co-corrector, read-out: EC50 (without co-corrector)

Compound | EC50 (F508delCFTR; [1]) | Maximum % activity (with co-corrector) (F508delCFTR; with co-corrector (2 μM)) | EC50 (F508delCFTR; [2]) | Maximum % activity (without co-corrector) (F508delCFTR; without co-corrector) | Emax (% Dual) (F508del/F508del CFTR) | EC50 (F508del/F508del CFTR)
COc1ccc(C)cc1[C@]1(C(=O)NS(=O)(=O)c2cccc3nc(C)ccc23)C[C@@H]1c1ccc(C(C)C)nn1 [Example 69, (1S,2S)-1-(2-methoxy-5-methylphenyl)-N-(2-methylquinoline-5-sulfonyl)-2-[6-(propan-2-yl)pyridazin-3-yl]cyclopropane-1-carboxamide] | 3430 nM | 495% | 6010 nM | 170% | 111 % Dual | > 300 nM
CCOc1ncccc1[C@@H]1C[C@]1(C(=O)NS(=O)(=O)c1cccc2nc(C)ccc12)c1cc(C)ccc1OC (single isomer, unassigned) [Example 73] | 785 nM | – | 1440 nM | 539% | 230 % Dual | 30.6 nM
COc1ccc(C)cc1[C@]1(C(=O)NS(=O)(=O)c2cccc3nc(C)ccc23)C[C@@H]1c1cnc(OC)c(OC)n1 [Example 80, (1S,2S)-2-(5,6-dimethoxypyrazin-2-yl)-1-(2-methoxy-5-methylphenyl)-N-(2-methylquinoline-5-sulfonyl)cyclopropane-1-carboxamide] | 461 nM | – | 1320 nM | 925% | 275 % Dual | 15.8 nM
COc1ccc(C)cc1[C@]1(C(=O)NS(=O)(=O)c2cccc3nc(C)ccc23)C[C@@H]1c1ccc(C)nc1C [Example 81, (1S,2R)-2-(2,6-dimethylpyridin-3-yl)-1-(2-methoxy-5-methylphenyl)-N-(2-methylquinoline-5-sulfonyl)cyclopropane-1-carboxamide] | 3980 nM | 876% | 5780 nM | 476% | 173 % Dual | 94.4 nM
CCOc1ccc([C@@H]2C[C@]2(C(=O)NS(=O)(=O)c2cccc3nc(C)ccc23)c2cc(C)ccc2OC)cn1 [Example 59, (1R,2S)-2-(6-ethoxypyridin-3-yl)-1-(2-methoxy-5-methylphenyl)-N-(2-methylquinoline-5-sulfonyl)cyclopropane-1-carboxamide] | 779 nM | – | 1520 nM | 438% | 161 % Dual | 63.8 nM
COc1ccc(C)cc1[C@]1(C(=O)NS(=O)(=O)c2cccc3nc(C)ccc23)C[C@@H]1c1ccc(C(F)(F)F)cc1 (single isomer, unassigned) [Example 18] | – | – | 198 nM | – | 270 % Dual | 1.3 nM
COc1cnc([C@H]2C[C@@]2(C(=O)NS(=O)(=O)c2cccc3nc(C)ccc23)c2cc(C)ccc2OC)cn1 (single isomer, unassigned) [Example 48] | 1080 nM | – | 1780 nM | 790% | 401 % Dual | 47.1 nM
COc1ccc(C)cc1[C@]1(C(=O)NS(=O)(=O)c2cccc3nc(C)ccc23)C[C@@H]1c1cccc(C)n1 [Example 96, (1S,2S)-1-(2-methoxy-5-methylphenyl)-2-(6-methylpyridin-2-yl)-N-(2-methylquinoline-5-sulfonyl)cyclopropane-1-carboxamide] | 990 nM | – | 1980 nM | – | 256 % Dual | 7.8 nM
COc1nccc([C@H]2C[C@@]2(C(=O)NS(=O)(=O)c2cccc3nc(C)ccc23)c2cc(C)ccc2OC)n1 (single isomer, unassigned) [Example 98] | 804 nM | – | 1440 nM | – | 201 % Dual | 21 nM
COc1cnc([C@@H]2C[C@]2(C(=O)NS(=O)(=O)c2cccc3nc(C)ccc23)c2cc(C)ccc2OC)cn1 (racemic) [Example 39, rac-(1r,2r)-1-(2-methoxy-5-methylphenyl)-2-(5-methoxypyrazin-2-yl)-N-(2-methylquinoline-5-sulfonyl)cyclopropane-1-carboxamide] | 639 nM | – | 1230 nM | 563% | 317 % Dual | 18 nM
